From US20080242600A1, “Backbone Cyclized Melanocortin Stimulating Hormone (Alpha Msh) Analogs” (priority 2005, published 2008)
“Also recorded” adds a separate entry of the source. *1 amine or outer side, *2 acyl side, *3 side chain or, on linkers, in order; H or OH if unused. Where a SMILES comes first, the peptide text is derived from it. Bridges are numbered along the chain shown (N, C = ends). [ ]: non-standard residue; d: D form. NGly(3-aminopropyl) = O=C(CN(CCCN[*:3])[*:1])[*:2]; N(2-Aminoethyl)Gly = O=C(CN(CCN[*:3])[*:1])[*:2]; Heptanedioyl = O=C(CCCCCC(=O)[*:2])[*:1]; Adipoyl = O=C(CCCCC(=O)[*:2])[*:1]; Glutaryl = O=C(CCCC(=O)[*:2])[*:1]; Suc = O=C(CCC(=O)[*:2])[*:1]; Nlys = NCCCCNCC(=O)O

What was measured:
MC4R [1] = molecular target: T1, MC4R (Homo sapiens, UniProt P32245); test: Receptor binding assay (IC50 on the MC4R)
T1 construct: expressed in transfected cells; host or cells: CHO cells
T1 sequence (P32245 whole entry, species assumed): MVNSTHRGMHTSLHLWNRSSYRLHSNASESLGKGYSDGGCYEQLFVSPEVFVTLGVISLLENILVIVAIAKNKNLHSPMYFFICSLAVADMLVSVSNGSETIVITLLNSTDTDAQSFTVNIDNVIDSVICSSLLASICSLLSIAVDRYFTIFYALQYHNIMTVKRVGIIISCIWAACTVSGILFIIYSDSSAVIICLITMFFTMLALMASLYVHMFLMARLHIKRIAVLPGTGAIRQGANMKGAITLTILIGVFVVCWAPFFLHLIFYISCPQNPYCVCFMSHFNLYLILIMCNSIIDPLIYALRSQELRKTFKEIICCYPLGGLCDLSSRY
Description: The analogs can be further tested in vitro for their influence on cyclic adenosine monophosphate (cAMP) levels. Intestinal permeability and metabolic stability of the analogs can be tested in vivo. The analogs can be further tested in vivo in preclinical models in order to identify the optimal mode of administration and proper dose, and to verify the safety and the efficacy of these new potential therapeutic drugs.
Transfected CHO cells are washed with binding buffer 8 and distributed into 96-well plates (approximately 40,000 cells/well). […] NDP-α-MSH and appropriate concentrations of an unlabelled ligand. After incubation, the cells are washed with 0.2 ml of ice-cold binding buffer and detached from the plates with 0.2 ml of 0.1 N NaOH. Radioactivity is counted (Wallac, Wizard automatic gamma counter) and data analyzed with a software package for radioligand binding analyses (Wan System, Umea, Sweden) by fitting it to formulas derived from the law of mass-action by the method generally referred to as computer modeling. The binding assays are performed in duplicate wells.

MC4R [2] = molecular target: T1, MC4R; test: Determination of receptor activation (cAMP accumulation assay); assay type: cell-based
Procedure: cAMP Accumulation Assays: 48 h after transfection, CHO cells are washed once with PBS and then detached from the plate with PBS containing 0.02% EDTA (Sigma). The detached cells are harvested by centrifugation and resuspended in Hanks' balanced salt solution (Invitrogen) containing 0.5 mM IBMX, 2 mM HEPES, pH 7.5 (IBMX buffer). After incubation at 37° C. for 15 min to allow for IBMX uptake, 0.4 ml of cell suspension (5×10^5 cells/ml) is added to 0.1 ml of IBMX buffer containing various concentrations of agonists or 10 μM forskolin. The cells are subsequently incubated at 37° C. for 15 min to allow for cAMP accumulation. The activity is terminated by adding 0.5 ml of 5% trichloroacetic acid, and cAMP released from lysed cells is assayed by the cAMP ^125I scintillation proximity assay system (Amersham Biosciences).
EC50 values are calculated with a 95% confidence interval using GraphPad Prism software (using nonlinear regression analysis fitted with a sigmoidal dose-response curve with variable slope).

ICR:Hsd (CD-1) male mice = test: Effect of orally administered BBC-1 on food consumption in normal mice; assay type: in vivo
Procedure: ICR:Hsd (CD-1) male mice, 7-8 weeks old, were raised in separate cages and maintained at 23±1° C. on a 12-hr light, 12-hr dark cycle (0700-1900 hr light). Mice were allowed ad libitum access to water and standard chow pellets. Upon arrival mice were allowed to acclimate for 1 week. Following fasting for 16 hours, the animals (n=8) were subjected to a single oral gavage (PO, 5 ml/kg) of BBC1 (100 μg/ml, 1000 μg/ml) or vehicle (water). Immediately after administration, fixed food doses were added and re-weighed after 1, 2, 3, 4, 5, 8 and 24 hours.

[3] = Assessment of intestinal metabolic stability in brush border membrane vesicles; assay type: in vitro ADME; details: rat intestinal brush border membranes
Procedure: Brush-border membrane vesicles (BBMVs) were prepared from combined duodenum, jejunum, and upper ileum by a Ca++precipitation method (PEERCE). The intestines of 5 male Wistar rats, 200-250 g, were rinsed with ice cold 0.9% Nacl and freed of mucos, the mucosa was scraped off the luminal surface with glass slides and put immediately into buffer containing […] Kcl and 10 mM Tris-HCl (pH 7.5, 4° C.) and the mixture homogenated by Ploytron (Polytron PT 1200, Kinematica AG, Switzerland). CaCl was added to a final concentration of 10 mM. The homogenate was left shaking for 30 min at 4° C. and afterwards centrifuged at 10,000 g for 10 min (centrifuge) the supernatant was then centrifuged at 48,000 g for 30 min an additional two purification steps were undertaken by suspending the pellet in 300 mM mannitol and 10 mM Hepes/Tris (pH 7.5) and centrifuge 24,000 g/hr. Purification of brush border membranes was assayed using the brush border membrane enzyme markers GGT, LAP and alkaline phosphatase. During the course of these studies, enrichment in brush border membrane enzymes varied between 13- and 18-fold.

| SMILES | IC50 (MC4R [1]) | also measured |
| --- | --- | --- |
| N=C(N)NCCC[C@@H]1NC(=O)[C@@H](Cc2ccccc2)NC(=O)[C@H](Cc2ccccc2)NC(=O)CCCCC(=O)NCCN(CC(N)=O)C(=O)[C@H](Cc2c[nH]c3ccccc23)NC1=O [BBC10] (F[dF]RW[N(2-Aminoethyl)Gly]-NH2; linker N-5 via Adipoyl) | 0.12 µM |  |
| N=C(N)NCCC[C@@H]1NC(=O)[C@@H](Cc2ccccc2)NC(=O)[C@H](Cc2ccccc2)NC(=O)CCCCCC(=O)NCCN(CC(N)=O)C(=O)[C@H](Cc2c[nH]c3ccccc23)NC1=O [BBC9] (F[dF]RW[N(2-Aminoethyl)Gly]-NH2; linker N-5 via Heptanedioyl) | 0.1 µM |  |
| N=C(N)NCCC[C@@H]1NC(=O)[C@@H](Cc2ccccc2)NC(=O)[C@H](Cc2ccccc2)NC(=O)CCC(=O)NCCN(CC(N)=O)C(=O)[C@H](Cc2c[nH]c3ccccc23)NC1=O [BBC1] (F[dF]RW[N(2-Aminoethyl)Gly]-NH2; linker N-5 via Suc) | 0.09 µM | MC4R functionality and selectivity (MC4R [2]): highly functional and selective; also recorded: specific activation of MC4R; food consumption (in words) (ICR:Hsd (CD-1) male mice; single oral administration, 24 hours): decreased food consumption; reduction of food consumption (ICR:Hsd (CD-1) male mice; single oral administration, over a period of 24 hr): ~40%; clinical signs post administration (ICR:Hsd (CD-1) male mice; single oral gavage, following 24 hours): did not show any special clinical signs; intestinal metabolic stability [3]: high and enzymatically stable |
| N=C(N)NCCC[C@@H]1NC(=O)[C@@H](Cc2ccccc2)NC(=O)[C@H](Cc2ccccc2)NC(=O)CCCCCC(=O)NCCCN(CC(N)=O)C(=O)[C@H](Cc2c[nH]c3ccccc23)NC1=O [BBC7] (F[dF]RW[NGly(3-aminopropyl)]-NH2; linker N-5 via Heptanedioyl) | 0.1 µM |  |

Further compounds by falling IC50 (MC4R [1]), results first:

| IC50 (MC4R [1]) | SMILES | also measured |
| --- | --- | --- |
| 0.11 µM | N=C(N)NCCC[C@@H]1NC(=O)[C@@H](Cc2ccccc2)NC(=O)[C@H](Cc2ccccc2)NC(=O)CCCC(=O)NCCCN(CC(N)=O)C(=O)[C@H](Cc2c[nH]c3ccccc23)NC1=O [BBC6] (F[dF]RW[NGly(3-aminopropyl)]-NH2; linker N-5 via Glutaryl) |  |
| 0.1 µM | N=C(N)NCCC[C@@H]1NC(=O)[C@@H](Cc2ccccc2)NC(=O)[C@H](Cc2ccccc2)NC(=O)CCCC(=O)NCCCCN(CC(N)=O)C(=O)[C@H](Cc2c[nH]c3ccccc23)NC1=O [BBC12] (F[dF]RW[Nlys]-NH2; linker N-5 via Glutaryl) |  |
| 0.1 µM | N=C(N)NCCC[C@@H]1NC(=O)[C@@H](Cc2ccccc2)NC(=O)[C@H](Cc2ccccc2)NC(=O)CCCCC(=O)NCCCCN(CC(N)=O)C(=O)[C@H](Cc2c[nH]c3ccccc23)NC1=O [BBC13] (F[dF]RW[Nlys]-NH2; linker N-5 via Adipoyl) |  |
| 0.06 µM | N=C(N)NCCC[C@@H]1NC(=O)[C@@H](Cc2ccccc2)NC(=O)[C@H](Cc2ccccc2)NC(=O)CCCCC(=O)NCCCN(CC(N)=O)C(=O)[C@H](Cc2c[nH]c3ccccc23)NC1=O [BBC15] (F[dF]RW[NGly(3-aminopropyl)]-NH2; linker N-5 via Adipoyl) |  |
| 0.06 µM | N=C(N)NCCC[C@@H]1NC(=O)[C@@H](Cc2ccccc2)NC(=O)[C@H](Cc2ccccc2)NC(=O)CCC(=O)NCCCN(CC(N)=O)C(=O)[C@H](Cc2c[nH]c3ccccc23)NC1=O [BBC8] (F[dF]RW[NGly(3-aminopropyl)]-NH2; linker N-5 via Suc) |  |
